# Measured values reported in patent US4061748A, “7-(α-(4 -Hydroxy-1,5-naphthyridine-3-carbonamido)-α-phenylacetamido) cephalosporin derivatives” (Sumitomo Chemical Company, Limited, priority 1975, dated 1977).
# Key:
# Pseudomonas aeruginosa T [1] = assay: Median protective dose against intraperitoneal infection in mice; assay type: in vivo, Pseudomonas aeruginosa; male ICR-SLC strain mice; settings: sc, two subcutaneous treatments, 1 and 4 hours after infection, read-out: PD50
# Text: (§1) The relative activities of the compounds of the present invention, Compound (A) and Compound (B) against various intraperitoneal infections in mice evaluated by mean median protective doses (subcutaneously administered) are shown in Table 3.
# (§2) For each test, eight male ICR-SLC strain mice were used at each dose
# [2] = Antibiotic serum concentrations in mice following subcutaneous administration (disc method bioassay); assay type: in vivo, ICR-SLC strain mice; settings: mouse, sc, 50 mg/kg; for Cmax: read-out: Peak concentration
# Protocol: The antibiotic serum concentrations of the six cephalosporins following subcutaneous administration at 50 mg/kg to ICR-SLC strain mice are shown in Table 2.
# The bioassay was carried out according to the disc method using
# Pseudomonas aeruginosa.
# Pseudomonas aeruginosa T [3] = assay: Minimum inhibitory concentration, nutrient broth dilution method; assay type: cell-based
# Protocol: (§3) The minimum inhibitory concentrations obtained with the example compounds, Compound (A) and Compound (B), against the following organisms representing 6 genera are shown in Table 1.
# (§4) MIC was determined by the nutrient broth dilution method.
# [4] = tested on: Enterobacter aerogenes No. 75; assay: as above; assay type: cell-based; settings: Klebsiella aerogenes
# Protocol: as §3, §4
# Serratia No. 72 = assay: as above; assay type: cell-based
# Protocol: as §3, §4
# [5] = tested on: Klebsiella pneumoniae PCI 602; assay: as above; assay type: cell-based; settings: PCI602
# Protocol: as §3, §4
# Escherichia coli NIHJ = assay: as above; assay type: cell-based
# Protocol: as §3, §4
# [6] = tested on: Proteus mirabilis GN 2425; assay: as above; assay type: cell-based; settings: GN2425
# Protocol: as §3, §4
# Serratia No. 75 [7] = assay: Minimum inhibitory concentration, nutrient broth dilution method (Table 3); assay type: cell-based
# Protocol: as §4
# Escherichia coli No. 37 [8] = assay: as above; assay type: cell-based
# Protocol: as §4
# Serratia No. 75 [9] = assay: Median protective dose against intraperitoneal infection in mice; assay type: in vivo, Serratia; male ICR-SLC strain mice; settings: sc; Serratia No. 75, intraperitoneal infection; two subcutaneous treatments, 1 and 4 hours after infection; read-out: PD50
# Text: as §1, §2
# [10] = tested on: Enterobacter aerogenes No. 75; assay: as above; assay type: in vivo, Enterobacter aerogenes; male ICR-SLC strain mice; settings: Klebsiella aerogenes, sc; Enterobacter aerogenes No. 75, intraperitoneal infection; two subcutaneous treatments, 1 and 4 hours after infection; read-out: PD50
# Text: as §1, §2
# Escherichia coli No. 37 [11] = assay: as above; assay type: in vivo, Escherichia coli; male ICR-SLC strain mice; settings: sc; Escherichia coli No. 37, intraperitoneal infection; two subcutaneous treatments, 1 and 4 hours after infection; read-out: PD50
# Text: as §1, §2
SMILES,ED50 (Pseudomonas aeruginosa T [1]) [mg/kg],Cmax [2] [ng/mL],MIC (Pseudomonas aeruginosa T [3]) [µg/mL],MIC [4] [µg/mL],MIC (Serratia No. 72) [µg/mL],MIC [5] [µg/mL],MIC (Escherichia coli NIHJ) [µg/mL],MIC [6] [µg/mL],MIC (Serratia No. 75 [7]) [µg/mL],MIC (Escherichia coli No. 37 [8]) [µg/mL],ED50 (Serratia No. 75 [9]) [mg/kg],ED50 [10] [mg/kg],ED50 (Escherichia coli No. 37 [11]) [mg/kg],half-life [2] [min]
"CC(=O)OCC1=C(C(=O)O)N2C(=O)C(NC(=O)[C@H](NC(=O)c3cnc4ccccc4c3O)c3ccccc3)C2SC1 (stereo partly drawn) [Compound (A), sodium 7-[D-α-(4-hydroxyquinoline-3-carboxyamino)-α-phenylacetamido] cephalosporanate, reference compound]",> 100,< 900,12.5,25,100,0.78,6.25,25,100,12.5,> 150,200,> 200,–
"CC(=O)OCC1=C(C(=O)O)N2C(=O)C(NC(=O)[C@H](NC(=O)c3cnccc3O)c3ccccc3)C2SC1 (stereo partly drawn) [Compound (B), sodium 7-[D-α-(4-hydroxypyridine-3-carboxyamino)-α-phenylacetamido] cephalosporanate, reference compound]",92,26000,25,25,> 200,12.5,12.5,50,> 200,25,> 150,170,170,30
Cn1nnnc1SCC1=C(C(=O)O)N2C(=O)C(NC(=O)[C@H](NC(=O)c3cnc4cccnc4c3O)c3ccccc3)C2SC1 (some centres unmarked) [Example 3],28,24000,12.5,3.13,12.5,0.39,0.78,12.5,6.25,3.13,25,25,28,25
"CC(=O)OCC1=C(C(=O)O)N2C(=O)C(NC(=O)[C@H](NC(=O)c3cnc4cccnc4c3O)c3ccccc3)C2SC1 (stereo partly drawn) [Example 1, 7-[D-α-(4-Hydroxy-1,5-naphthyridine-3-carboxyamido)-α-phenylacetamido] cephalosporanic acid]",18,44000,6.25,6.25,50,1.56,3.13,12.5,50,6.25,65,50,50,25
"Cc1nnc(SCC2=C(C(=O)O)N3C(=O)C(NC(=O)[C@H](NC(=O)c4cnc5cccnc5c4O)c4ccccc4)C3SC2)s1 (stereo partly drawn) [Example 2, 7-[D-α-(4-Hydroxy-1,5-naphthyridine-3-carboxyamido)-α-phenylacetamido]-3-(2-methyl-1,3,4-thiadiazole-5-yl)thiomethyl-3-cephem-4-carboxylicacid]",23,38000,6.25,3.13,12.5,0.78,1.56,12.5,12.5,6.25,30,28,41,35
"O=C(O)C1=C(CSc2cnn[nH]2)CSC2C(NC(=O)[C@H](NC(=O)c3cnc4cccnc4c3O)c3ccccc3)C(=O)N12 (stereo partly drawn) [Example 4, 7-[d-α-(4-hydroxy-1,5-naphthyridine-3-carboxyamido)-α-phenylacetamido]-3-(1,2,3-triazole-5-yl)thiomethyl-3-cephem-4-carboxylic acid]",30,26000,12.5,3.13,25,1.56,1.56,25,12.5,6.25,30,30,45,30
